According to patent US20220031853A1, “HSP90-TARGETING CONJUGATES AND FORMULATIONS THEREOF” (TARVEDA THERAPEUTICS, INC., priority 2018, published 2022):
pIC50, pKd: −log10 of the molar value.

Assays:
[1] = molecular target: T1, purified recombinant HSP90a (Homo sapiens, UniProt P07900); assay: HSP90a Assay Kit, fluorescence polarization competition with fluorescently labeled geldanamycin; settings: read-out: HSP90 Binding Kd
T1 construct: purchased
Description: The bindings of the conjugates to HSP90 were studied with the HSP90a Assay Kit. The HSP90a Assay Kit is designed for identification of HSP90a inhibitors using fluorescence polarization. The assay is based on the competition of fluorescently labeled geldanamycin for binding to purified recombinant HSP90a. The key to the HSP90a Assay Kit is the fluorescently labeled geldanamycin. The fluorescently labeled geldanamycin is incubated with a sample containing HSP90a enzyme to produce a change in fluorescent polarization that can then be measured using a fluorescence reader.

[2] = test system: LS174T (colon) tumor cells; assay: Tumor cell cytotoxicity assay (CellTiter-Glo), LS174T; format: cell-based; settings: Homo sapiens, 72 hrs, CellTiter-Glo ATP levels, read-out: in vitro cytotoxicity IC50
Description: (§1) Tumor cells were plated at 500-5,000 cells per well and incubated for 20-24 hrs at 37 °C at 5% CO2. Post cell incubation, compounds were reconstituted in DMSO to a stock concentration of 200 uM. A compound plate was then prepared containing a 10 point dilution in RPMI+10% FBS+0.25% DMSO. 5 uL of the dilution was then added for a final working concentration range of 10 uM to 0.0005 uM. Compounds and cells were then incubated for up to 72 hrs. Cells were then analyzed by CellTiter-Glo for ATP levels and percent inhibition calculated.
as §1, with “BT474 (breast), LS174T (colon), or HCT-116 (colon) tumor” for “Tumor”, “2500” for “500-5,000”, “for” for “for up to”

[3] = test system: BT474 (breast) tumor cells; assay: Tumor cell cytotoxicity assay (CellTiter-Glo), BT474; format: cell-based; settings: Homo sapiens, BT-474, 72 hrs, CellTiter-Glo ATP levels, read-out: in vitro cytotoxicity IC50
Description: as §1
as §1, with “BT474 (breast), LS174T (colon), or HCT-116 (colon) tumor” for “Tumor”, “2500” for “500-5,000”, “for” for “for up to”

[4] = test system: NCI-H460 cells (non-small cell lung cancer); assay: Tumor cell cytotoxicity assay (CellTiter-Glo), NCI-H460; format: cell-based; settings: Homo sapiens, 48 hrs, CellTiter-Glo ATP levels, read-out: in vitro cytotoxicity IC50
Description: as §1
NCI-H460 cells (non-small cell lung cancer) were plated at 500 cells per well and incubated for 20-24 hrs at 37° C. at 5% CO2. Post cell incubation, compounds were reconstituted in DMSO to a stock concentration of 200 uM. A compound plate was then prepared containing a 10 point dilution in RPMI+10% FBS+0.25% DMSO. 5 uL of the dilution was then added for a final working concentration range of 10 uM to 0.0005 uM. Compounds and cells were then incubated for 48 hrs. Cells were then analyzed by CellTiter-Glo for ATP levels and percent inhibition calculated.

[5] = test system: HCT-116 (colon) tumor cells; assay: Tumor cell cytotoxicity assay (CellTiter-Glo), HCT-116; format: cell-based; settings: Homo sapiens; HCT-116 cells, 72 hrs, CellTiter-Glo ATP levels; read-out: in vitro cytotoxicity IC50
Description: as §1
as §1, with “BT474 (breast), LS174T (colon), or HCT-116 (colon) tumor” for “Tumor”, “2500” for “500-5,000”, “for” for “for up to”

SMILES | pKd [1] | pIC50 [2] | pIC50 [3] | pIC50 [4] | pIC50 [5]
CCNC(=O)c1nnc(-c2cc(C(C)C)c(O)cc2O)n1-c1ccc(CN2CCN(C(=O)[C@H](N)Cc3ccc(OC(=O)N4CCN(c5ccc(-n6c(=O)n(C)c7cnc8ccc(-c9ccc(OC)nc9)cc8c76)cc5C(F)(F)F)CC4)cc3)CC2)cc1 [Compound 26] | 8.91 | – | – | – | –
CCNC(=O)c1nnc(-c2cc(C(C)C)c(O)cc2O)n1-c1ccc(CN2CCN(C(=O)Cc3ccc(OC(=O)N(CC)C4CCN(C(=O)c5ccc(NC(=O)Nc6ccc(-c7nc(N8CCOCC8)nc(N8CCOCC8)n7)cc6)cc5)CC4)cc3)CC2)cc1 [Compound 18] | – | 5.47 | 5.78 | 6.41 | 6.61
CCNC(=O)c1nnc(-c2cc(C(C)C)c(O)cc2O)n1-c1ccc(CN2CCN(C(=O)Cc3ccc(OC(=O)N4CCN(c5ccc(-n6c(=O)n(C)c7cnc8ccc(-c9ccc(OC)nc9)cc8c76)cc5C(F)(F)F)CC4)cc3)CC2)cc1 [Compound 22] | 9.10 | – | – | – | –
